Measured values as given in patent US9221839B2, “C5-C6 oxacyclic-fused thiadiazine dioxide compounds as BACE inhibitors, compositions, and their use” (Merck Sharp & Dohme Corp., priority 2011, dated 2015).

Legend:
[1] = target: soluble human BACE1 catalytic domain (Homo sapiens (Human), UniProt P56817); assay: BACE1 HTRF FRET Assay; type: biochemical; conditions: Ki calculated from IC50 using the Cheng-Prusoff equation
Source text: Na^+-Acetate pH 5.0; 1% Brij-35; Glycerol; Dimethyl Sulfoxide (DMSO); Recombinant human soluble BACE1 catalytic domain (>95% pure); APP Swedish mutant peptide substrate (QSY7-APP^swe-Eu): QSY7-[…]-Europium-amide.
A homogeneous time-resolved FRET assay can be used to determine IC50 values for inhibitors of the soluble human BACE1 catalytic domain. This assay monitors the increase of 620 nm fluorescence that resulted from BACE1 cleavage of an APPswedish APP^swe mutant peptide FRET substrate (QSY7-[…]-Europium-amide). This substrate contains an N-terminal QSY7 moiety that serves as a quencher of the C-terminal Europium fluorophore (620 nm Em). In the absence of enzyme activity, 620 nm fluorescence is low in the assay and increased linearly over 3 hours in the presence of uninhibited BACE1 enzyme Inhibition of BACE1 cleavage of the QSY7-APP^swe-Eu substrate by inhibitors is manifested as a suppression of 620 nm fluorescence.
Reactions are initiated by addition of 10 μl of 600 nM QSY7-APP^swe-Eu substrate (200 nM final) to give a final reaction volume of 30 μl in a 384 well Nunc HTRF plate. The reactions are incubated at 30° C. for 1.5 hours. The 620 nm fluorescence is then read on a Rubystar HTRF plate reader (BMG Labtechnologies) using a […] delay followed by a 400 millisecond acquisition time window. Inhibitor IC50 values are derived from non-linear regression analysis of concentration response curves.

[2] = target: purified human autoBACE-2 (Homo sapiens, UniProt Q9Y5Z0); assay: BACE-2 Assay (BACE-HTRF assay); type: biochemical; conditions: Ki calculated from IC50 using the Cheng-Prusoff equation; read-out: BACE2 Ki
Chain of purified human autoBACE-2 (Q9Y5Z0 63-518 limits assumed): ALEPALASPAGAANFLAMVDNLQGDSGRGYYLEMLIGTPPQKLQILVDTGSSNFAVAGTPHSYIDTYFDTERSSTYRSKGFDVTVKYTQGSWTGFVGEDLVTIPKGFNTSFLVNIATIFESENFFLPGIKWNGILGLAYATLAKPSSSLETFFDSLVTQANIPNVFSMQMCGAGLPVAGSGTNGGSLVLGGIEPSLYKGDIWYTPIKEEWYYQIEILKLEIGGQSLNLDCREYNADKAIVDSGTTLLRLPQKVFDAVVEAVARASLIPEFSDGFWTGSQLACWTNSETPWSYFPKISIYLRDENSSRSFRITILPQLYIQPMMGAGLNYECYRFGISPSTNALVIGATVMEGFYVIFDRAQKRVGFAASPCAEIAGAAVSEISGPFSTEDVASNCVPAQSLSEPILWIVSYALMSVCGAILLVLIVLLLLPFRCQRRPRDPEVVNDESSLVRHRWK
Experimental: Following laser excitation of sample wells at 320 nm, the fluorescence signal at 620 nm is collected for 400 ms following a 50 μs delay on a RUBYstar HTRF plate reader (BMG Labtechnologies). Raw RFU data is normalized to maximum (1.0 nM BACE/DMSO) and minimum (no enzyme/DMSO)RFU values. […] The Ki values are calculated from the IC50 using the Cheng-Prusoff equation.

Chain of soluble human BACE1 catalytic domain (P56817 75-416): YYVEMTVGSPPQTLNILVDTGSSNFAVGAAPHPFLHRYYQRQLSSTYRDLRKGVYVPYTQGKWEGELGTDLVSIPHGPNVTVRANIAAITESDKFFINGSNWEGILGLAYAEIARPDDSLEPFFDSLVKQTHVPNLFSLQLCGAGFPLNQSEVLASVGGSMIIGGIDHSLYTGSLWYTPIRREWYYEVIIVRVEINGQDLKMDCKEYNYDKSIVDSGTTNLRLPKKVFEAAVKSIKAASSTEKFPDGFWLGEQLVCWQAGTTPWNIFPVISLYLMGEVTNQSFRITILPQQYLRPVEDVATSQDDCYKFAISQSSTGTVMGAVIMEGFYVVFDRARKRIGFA

| Ki [1] | Ki [2] | Structure (SMILES) |
| --- | --- | --- |
| 354 nM | 473 nM | CN1C(=N)N[C@]2(c3cc(NC(=O)c4ccc(C(F)(F)F)cn4)ccc3F)COC[C@@H]2S1(=O)=O [Example 6a] |
| 1330 nM | 1510 nM | COc1cnc(C(=O)Nc2ccc(F)c([C@@]34COC[C@@H]3S(=O)(=O)N(C)C(=N)N4)c2)cn1 [Example 4a] |
| 28.4 nM | 55 nM | CN1C(=N)N[C@@]2(c3cc(NC(=O)c4cnc(C(F)(F)F)cn4)ccc3F)COC[C@H]2S1(=O)=O [Example 6d] |
| 18.2 nM | 8.2 nM | COc1ccc(C(=O)Nc2ccc(F)c([C@]34COC[C@H]3S(=O)(=O)N(C)C(=N)N4)c2)nc1 [Example 3] |
| 197 nM | 55.2 nM | CN1C(=N)N[C@]2(c3cc(NC(=O)c4ccc(Cl)cn4)ccc3F)COC[C@@H]2S1(=O)=O [Example 5a] |
| 9.79 nM | 19.5 nM | CN1C(=N)N[C@@]2(c3cc(NC(=O)c4ccc(C(F)(F)F)cn4)ccc3F)COC[C@H]2S1(=O)=O [Example 6] |
| 5.07 nM | 1.3 nM | CN1C(=N)N[C@@]2(c3cc(NC(=O)c4ccc(Cl)cn4)ccc3F)COC[C@H]2S1(=O)=O [Example 5] |
| 15.8 nM | 6.9 nM | COc1cnc(C(=O)Nc2ccc(F)c([C@]34COC[C@H]3S(=O)(=O)N(C)C(=N)N4)c2)c(F)c1 [Example 6e] |
| 13 nM | 1.9 nM | CN1C(=N)N[C@@]2(c3cc(NC(=O)c4ccc(F)cn4)ccc3F)COC[C@H]2S1(=O)=O [Example 1] |
| 54.1 nM | 48.4 nM | COc1cnc(C(=O)Nc2ccc(F)c([C@]34COC[C@H]3S(=O)(=O)N(C)C(=N)N4)c2)cn1 [Example 4] |
| 3530 nM | 491 nM | CN1C(=N)N[C@]2(c3cc(NC(=O)c4ccc(F)cn4)ccc3F)COC[C@@H]2S1(=O)=O [Example 1a] |
| 872 nM | 476 nM | COc1ccc(C(=O)Nc2ccc(F)c([C@@]34COC[C@@H]3S(=O)(=O)N(C)C(=N)N4)c2)nc1 [Example 3a] |

| Structure (SMILES) | Ki [1] | Ki [2] |
| --- | --- | --- |
| CN1C(=N)NC2(c3ccccc3F)COCC2S1(=O)=O (centres unmarked) [Example 6f] | 7850 nM | 4200 nM |
